Earlier results as cited in US20090264421A1 (priority 2007, published 2009).

Columns and labels:
TrxR1 = target: T1, TrxR1 (Homo sapiens, UniProt Q16881); settings: cited from earlier work
T1 sequence (Q16881 1-499 isoform Q16881-5): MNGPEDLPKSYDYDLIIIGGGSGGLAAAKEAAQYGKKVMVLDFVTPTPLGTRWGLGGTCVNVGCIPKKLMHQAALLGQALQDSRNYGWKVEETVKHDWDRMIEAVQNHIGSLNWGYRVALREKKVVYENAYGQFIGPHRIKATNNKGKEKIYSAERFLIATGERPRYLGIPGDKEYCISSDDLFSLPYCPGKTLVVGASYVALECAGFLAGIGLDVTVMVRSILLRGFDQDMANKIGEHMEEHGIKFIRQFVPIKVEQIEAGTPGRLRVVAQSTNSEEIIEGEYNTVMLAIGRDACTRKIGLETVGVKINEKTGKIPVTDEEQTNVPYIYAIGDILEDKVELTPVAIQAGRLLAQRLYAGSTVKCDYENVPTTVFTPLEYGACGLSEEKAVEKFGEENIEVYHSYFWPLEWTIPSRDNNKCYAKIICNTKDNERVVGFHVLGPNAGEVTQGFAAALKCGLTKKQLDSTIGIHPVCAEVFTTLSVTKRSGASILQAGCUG

glutaredoxin = target: T2, glutaredoxin (Homo sapiens, UniProt P35754); settings: cited from earlier work
T2 sequence (P35754 1-106): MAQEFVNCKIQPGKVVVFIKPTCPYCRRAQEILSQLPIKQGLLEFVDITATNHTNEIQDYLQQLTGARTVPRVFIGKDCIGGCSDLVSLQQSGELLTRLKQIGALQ

COc1c(Cl)cc2c(c1OC)N(C)[C@@H]1N3C(=O)[C@@]4(C)SS[C@@]3(C(=O)N4C)[C@H](O)[C@]21O [sporidesmin]
TrxR1 inhibition (TrxR1): not to significantly inhibit TrxR1 | glutaredoxin inhibition (glutaredoxin): inhibitor of glutaredoxin
